Ten molecules from patent US20260234165A1, “MACROCYCLIC COMPOUNDS, PREPARATION METHOD THEREFOR, AND USE THEREOF” (GENFLEET THERAPEUTICS (SHANGHAI) INC., priority 2004, published 2026) can be followed below.

Where a name gives a salt, the structure may show the parent alone. Read-outs that look alike come from different tables or passages of the source.

What all share (type): cell-based, human
The test system of assay [1] is AsPC-1 cells (KRAS G12D mutation). The assay can be described thus: 3D cell proliferation assay (CellTiter Glo-3D), AsPC-1. Conditions: medium with 2% FBS, read-out: AsPC-1 AP IC50. The method in brief: (§1)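 Proliferation of the KRAS-mutant lines NCI-H441 and AsPC-1 is measured over 5 days of compound treatment in medium with 2% FBS. Inhibition is computed from luminescence relative to DMSO and cell-free controls, and IC50 comes from a four-parameter curve.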
On the technique in general: ATP-based viability assays read luminescence as a measure of living cells.

In assay [2] the test system is p-ERK in AsPC-1 cells (KRAS G12D mutation). Put plainly: Cell p-ERK assay (HTRF) in AsPC-1 cells. The method in brief:
(§2)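 AsPC-1 (10000/well) or NCI-H441 (20000/well) cells were seeded in RPMI-1640 with 10% FBS, grown overnight, then exposed to 3.16-fold compound dilutions (0.1% DMSO) for 3 h at 37 °C. Lysates were read for phospho-ERK T202/Y204 by HTRF; IC50 came from four-parameter fits of inhibition versus DMSO and blank wells.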
A general note: In TR-FRET formats the signal depends on donor and acceptor labels being close together.

The test system of a further assay is NCI-H441 cells. The assay can be described thus: 3D cell proliferation assay (CellTiter Glo-3D), NCI-H441. Conditions: medium with 2% FBS, read-out: H441 AP IC50. The method in brief:
as §1

The test system of assay [3] is p-ERK in NCI-H441 cells (KRAS G12V mutation). Put plainly: Cell p-ERK assay (HTRF) in NCI-H441 cells. The method in brief: as §2
Where [4] appears, read: 3D cell proliferation (CellTiter Glo-3D).
[5] abbreviates: AsPC-1 cells, 3 h compound incubation, HTRF p-ERK T202/Y204, read-out: AsPC-1 p-ERK IC50.
[6] abbreviates: NCI-H441 cells, 3 h compound incubation, HTRF p-ERK T202/Y204, read-out: H441 p-ERK IC50.
Where [7] appears, read: Homo sapiens, ASPC1, 3D cell proliferation (CellTiter Glo-3D).
Where [8] appears, read: Homo sapiens, ASPC1, 3 h, AsPC-1 cells, 3 h compound incubation, HTRF p-ERK T202/Y204, read-out: AsPC-1 p-ERK IC50.
[9] abbreviates: Homo sapiens, NCI-H441, 3D cell proliferation (CellTiter Glo-3D).
Setting [10] is: Homo sapiens, NCI-H441, 3 h, NCI-H441 cells, 3 h compound incubation, HTRF p-ERK T202/Y204, read-out: H441 p-ERK IC50.

Broadly, the IC50 is the concentration needed to halve the response being measured. Turning to `CCn1c(-c2cc(C#CCN3CCCOCC3)cnc2[C@H](C)OC)c2c3cc(ccc31)-c1csc(n1)C[C@H](NP(=O)(CC)CC)C(=O)N1CCC[C@H](N1)C(=O)OCC(C)(C)C2` (atropisomer, axis not shown; (Ra)) [Compound Z920, N-((6^3S,4S,Z)—(Ra)-1^2-(5-(3-(1,4-oxazepan-4-yl)prop-1-yn-1-yl)-2-((S)-1-methoxyethyl)pyridin-3-yl)-1^1-ethyl-10,10-dimethyl-5,7-dioxo-6^1,6^2,6^3,6^4,6^5,6^6-hexahydro-1^1H-8-oxa-2(4,2)-thiazola-1(5,3)-indola-6(1,3)-pyridazinacycloundecaphane-4-yl)-P,P-diethylphosphoramidite formate], the IC50 in assay [1] (setting [4]) was found to be 38.3 nM; in assay [2] (setting [5]) it was 33.8 nM; in the assay on NCI-H441 cells (setting [4]), 15 nM; in assay [3] (setting [6]), 9.41 nM.
With `CCn1c(-c2cc(C#CCN3CCCOCC3)c[n+]([O-])c2[C@H](C)OC)c2c3cc(ccc31)-c1csc(n1)C[C@H](NC(=O)[C@H]1[C@H](C)[C@@H]1C)C(=O)N1CCC[C@H](N1)C(=O)OCC(C)(C)C2` (atropisomer, axis not shown; (Ra)) [Compound Z914-1, 5-(3-(1,4-oxazepan-4-yl)prop-1-yn-1-yl)-(Ra)-3-((6^3S,4S,Z)-4-((1r,2R,3S)-2,3-dimethylcyclopropane-1-carboxamido)-1^1-ethyl-10,10-dimethyl-5,7-dioxo-6^1,6^2,6^3,6^4,6^5,6^6-hexahydro-1^1H-8-oxa-2(4,2)-thiazola-1(5,3)-indola-6(1,3)-pyridazinacycloundecaphane-12-yl)-2-((S)-1-methoxyethyl)pyridine-1-oxide], the IC50 in assay [1] (setting [4]) was 0.24 nM; in assay [2] (setting [5]), 0.19 nM; with NCI-H441 cells (setting [4]) it was 0.11 nM; in assay [3] (setting [6]) it was 0.27 nM.
As to `CO[C@@H](C)c1ncc(C#CCN2CCS(=O)(=O)CC2)cc1-c1c2c3cc(ccc3n1CCO)-c1csc(n1)C[C@H](NC(=O)[C@H]1[C@H](C)[C@@H]1C)C(=O)N1CCC[C@H](N1)C(=O)OCC(C)(C)C2` (atropisomer, axis not shown; (Ra)) [Compound Z952, (1r,2R,3S)—N-((6^3S,4S,Z)—(Ra)-1^2-(5-(3-(1,1-dioxidothiomorpholino)prop-1-yn-1-yl)-2-((S)-1-methoxyethyl)pyridin-3-yl)-1^1-(2-hydroxyethyl)-10,10-dimethyl-5,7-dioxo-6^1,6^2,6^3,6^4,6^5,6^6-hexahydro-1^1H-8-oxa-2(4,2)-thiazola-1(5,3)-indola-6(1,3)-pyridazinacycloundecaphane-4-yl)-2,3-dimethylcyclopropane-1-carboxamide], the IC50 in assay [1] (setting [7]) amounted to 0.27 nM; in assay [2] (setting [8]), 0.53 nM; in the assay on NCI-H441 cells (setting [9]) it was 0.34 nM; in assay [3] (setting [10]), 0.54 nM.
The corresponding values for `CCn1c(-c2cc(N3CCN(C4(c5cccc(C)n5)CC4)CC3)cnc2[C@H](C)OC)c2c3cc(ccc31)-c1csc(n1)C[C@H](NC(=O)[C@H]1[C@H](C)[C@@H]1C)C(=O)N1CCC[C@H](N1)C(=O)OCC(C)(C)C2` [Compound Z81, (1r,2R,3S)—N-((6^3S,4S,Z)-1^1-ethyl-2-(2-((S)-1-methoxyethyl)-5-(4-(1-(6-methylpyridin-2-yl)cyclopropyl)piperazin-1-yl)pyridin-3-yl)-10-10-dimethyl-5,7-dioxo-6^1,6^2,6^3,6^4,6^5,6^6-hexahydro-1^1H-8-oxa-2(4,2)-thiazola-1(5,3)-indola-6(1,3)-pyridazinacycloundecaphane-4-yl)-2,3-dimethylcyclopropane-1-carboxamide formate] are 3.42 nM, 2.01 nM, 2.03 nM and 1.7 nM.
As for `COCCn1c(-c2cc(C#CCN(C)C[Si](C)(C)C)cnc2[C@H](C)OC)c2c3cc(ccc31)-c1csc(n1)C[C@H](NC(=O)[C@H]1[C@@H]3COC[C@@H]31)C(=O)N1CCC[C@H](N1)C(=O)OCC(C)(C)C2` (atropisomer, axis not shown; (Ra)) [Compound Z1091, (1R,5S,6r)-N-((6^3S,4S,Z)-1^1-(2-methoxyethyl)-1^2-(Ra)-(2-((S)-1-methoxyethyl)-5-(3-(methyl((trimethylsilyl)methyl)amino)prop-1-yn-1-yl)pyridin-3-yl)-10,10-dimethyl-5,7-dioxo-6^1,6^2,6^3,6^4,6^5,6^6-hexahydro-1^1H-8-oxa-2(4,2)-thiazola-1(5,3)-indola-6(1,3)-pyridazinacycloundecaphane-4-yl)-3-oxabicyclo[3.1.0]hexane-6-carboxamide], the IC50 came out at 1.67 nM in assay [1] (setting [7]); 2.34 nM in assay [2] (Homo sapiens, ASPC1, 3 h, read-out: AsPC-1 p-ERK IC50(nM)); 2.01 nM in the assay on NCI-H441 cells (Homo sapiens, 3D cell proliferation (CellTiter Glo-3D)); 1.92 nM in assay [3] (Homo sapiens, NCI-H441, 3 h, read-out: H441 p-ERK IC50(nM)).
For the molecule `CCn1c(-c2cc(C#CCN3CCC(N=S(C)(C)=O)CC3)cnc2[C@H](C)OC)c2c3cc(ccc31)-c1csc(n1)C[C@H](NC(=O)[C@H]1[C@H](C)[C@@H]1C)C(=O)N1CCC[C@H](N1)C(=O)OCC(C)(C)C2` [Compound Z1045], the IC50 turned out to be 0.21 nM in assay [1] (setting [7]), 0.36 nM in assay [2] (setting [8]), 0.17 nM in the assay with NCI-H441 cells (setting [9]) and 0.19 nM in assay [3] (setting [10]).
For the molecule `CCn1c(-c2cc(OC[C@H]3CCCN3Cc3ccn(C)n3)cnc2[C@H](C)OC)c2c3cc(ccc31)-c1csc(n1)C[C@H](NC(=O)[C@H]1[C@H](C)[C@@H]1C)C(=O)N1CCC[C@H](N1)C(=O)OCC(C)(C)C2` (atropisomer, axis not shown; (Ra)) [Compound Z784-2, (1r,2R,3S)—N-((6^3S,4S,Z)—(Ra)-1^2-5-(((R)-1-((1-methyl-1H-pyrazol-3-yl)methyl)pyrrolidin-2-yl)methoxy)-(2-((S)-1-methoxyethyl)-pyridin-3-yl)-10,10-dimethyl-5,7-dioxo-6^1,6^2,6^3,6^4,6^5,6^6-hexahydro-1^1H-8-oxa-2(4,2)-thiazola-1(5,3)-indola-6(1.3)-pyridazinacycloundecaphane-4-yl)-2,3-dimethylcyclopropane-1-carboxamide], the IC50 in assay [1] (setting [7]) amounted to 0.83 nM; in assay [2] (setting [8]), 0.66 nM; with NCI-H441 cells (setting [9]), 0.53 nM; in assay [3] (setting [10]) it was 0.8 nM.
The like results for `CCn1c(-c2cc(N3CCN(C)CC3)cnc2[C@H](C)OC)c2c3cc(ccc31)-c1csc(n1)C[C@H](Nc1nnc3cc(C)ccn13)C(=O)N1CCC[C@H](N1)C(=O)OCC(C)(C)C2` (atropisomer, axis not shown; (Ra)) [Compound Z653, (6^3S,4S,Z)-1^1-ethyl-(Ra)-1^2-(2-((S)-1-methoxyethyl)-5-(4-methylpiperazin-1-yl)pyridin-3-yl)-10,10-dimethyl-4-((7-methyl-[1,2,4]triazolo[4,3-a]pyridin-3-yl)amino)-6^1,6^2,6^3,6^4,6^5,6^6-hexahydro-1^1H-8-oxa-2(4,2)-thiazola-1(5,3)-indola-6(1,3)-pyridazinacycloundecaphane-5,7-dione] were, in that order, 21.1 nM, 13.4 nM, 4.06 nM and 4.55 nM.
Take `[2H]C([2H])([2H])O[C@@H](C)c1ncc(N2CCN(C)CC2)cc1-c1c2c3cc(ccc3n1CC)-c1csc(n1)C[C@H](NC(=O)C(C)(C)F)C(=O)N1CCC[C@H](N1)C(=O)OCC(C)(C)C2` (atropisomer, axis not shown; (Ra)) [Compound Z64, N-((1^2R,6^3S,4S,Z)-1^1-ethyl-(Ra)-1^2-(2-((S)-1-(methoxy-d3)ethyl)-5-(4-methylpiperazin-1-yl)pyridin-3-yl)-10,10-dimethyl-5,7-dioxo-6^1,6^2,6^3,6^4,6^5,6^6-hexahydro-1^1H-8-oxa-2(4,2)-thiazola-1(5,3)-indola-6(1,3)-pyridazinacycloundecaphane-4-yl)-2-fluoro-2-methylpropanamide]: the IC50 in assay [1] (setting [7]) stood at 12.8 nM; in assay [2] (setting [8]), 6.24 nM; with NCI-H441 cells (setting [9]) it was 6.27 nM; in assay [3] (setting [10]) it was 3.32 nM.
The corresponding values for `CCn1c(-c2cc(C3(N(C)C(=O)CN(C)C)CC3)cnc2[C@H](C)OC)c2c3cc(ccc31)-c1csc(n1)C[C@H](NC(=O)[C@H]1[C@H](C)[C@@H]1C)C(=O)N1CCC[C@H](N1)C(=O)OCC(C)(C)C2` [Compound Z372, (1r,2R,3S)—N-((6^3S,4S,Z)-1^2-(5-(1-(2-(dimethylamino)-N-methylacetamido)cyclopropyl)-2-((S)-1-methoxyethyl)pyridin-3-yl)-1^1-ethyl-10,10-dimethyl-5,7-dioxo-6^1,6^2,6^3,6^4,6^5,6^6-hexahydro-1^1H-8-oxa-2(4,2)-thiazola-1(5,3)-indola-6(1,3)-pyridazinacycloundecaphane-4-yl)-2,3-dimethylcyclopropane-1-carboxamide] are 15.3 nM, 31.4 nM, 6.8 nM and 14 nM.
